Test results from patent US12473295B2, “Substituted straight chain spiro derivatives” (Janssen Pharmaceutica NV, priority 2019, dated 2025).
Where a name gives a salt, the structure may show the parent alone.

What was measured:
[1] = molecular target: hERG potassium channel (IKr) (Homo sapiens (Human), UniProt Q12809); assay: Effect on membrane potassium current IKr in hERG transfected CHO cells, Protocol 1 (QPatch); type: cell-based; conditions: human, CHO cells stably expressing the hERG potassium channel, pH 7.4
In short: (§1)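 Whole-cell automated patch clamp on CHO cells stably expressing hERG, held at −80 mV; the value is the tail current at −40 mV after a 2 s step to +60 mV, at pH 7.4 bath and pH 7.2 pipette. After 0.3% DMSO control, compound was applied at 3×10^−7 M, 3×10^−6 M, 10^−5 M and 3×10^−5 M, 5 min each. IC50 comes from a non-linear least-squares fit of block versus vehicle.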

[2] = test system: iCell Cardiomyocytes2; assay: Ca2+-fluorescence assay in human pluripotent stem cell-derived cardiomyocytes (CTCM human), iCell Cardiomyocytes2; type: cell-based; design: key: Green: No concern; Yellow: Low concern; Red: High concern; Black: Very high concern due to arrhythmic events; conditions: 30 min; for Color @ 0.1 μM (hazard score): iCell Cardiomyocytes2, 0.1 μM; for Color @ 1 μM (hazard score): iCell Cardiomyocytes2, 1 μM
Protocol: (§2) 7) Cardio-Electrophysiological Effects of the Testing Compounds in Synchronously Beating Human Pluripotent Stem Cell-Derived Cardiomyocytes (hSC-CMs) Using a Ca^2+-Fluorescence Assay (CTCM Human)
(§3) Compounds were tested in the 96-well plates
Compounds were tested at 0.1 μM, 0.2 μM, 0.5 μM, 1 μM, 2.5 μM and 5 μM (n=4 per dose) on Cor.4U 9-Cardiomyocytes or on iCell® Cardiomyocytes2
Alternatively, compounds were tested at 0.1 μM, 0.3 μM; 1 μM, 3 μM, 10 μM and 30 μM (n=4 per dose) mostly on iCell® Cardiomyocytes2
(§4) Dimethylsulfoxide (DMSO). The solutions of the compound in DMSO or its solvent (final concentration of 0.1% DMSO; n=8)
(§5) Preparation of Test Article and Controls
(§6) Tested compounds were dissolved in DMSO at 1000-fold the intended concentrations. A compound “mother-plate” was made, containing the test compounds and positive and negative controls at 1000-fold the final concentrations. At the experiment day, these stock solutions were diluted with Tyrode (Sigma), supplemented with 10 mM HEPES (Gibco), to 2-fold the intended concentration (in round bottom compound plates). Final DMSO concentration in test solutions and vehicle control was 0.1%.
Second line hSC derived cardiomyocyte called iCell®, Cardiomyocytes2 were purchased from FUJIFILM Cellular Dynamics (USA). The experiments with test drugs are carried out 5 to 7 days after plating the cells onto the plate to have a living, beating monolayer of hiPSC-derived cardiomyocytes. The beating monolayer in 96-well-plates are normally taken from 2 Vials of frozen iCell) Cardiomyocytes2 (≈5 million cells/vial), which will be plated onto […] 96-well plates (≈50K/well).
(§7) Before Start of Experiment
(§8) At least one hour before the start of the experiments the normal cell medium was replaced with Tyrode solution with Calcium dye (see below).
(§9) Cal 520 dye (AAT Bioquest) was dissolved in 11 ml of Tyrode supplemented with 10 mM HEPES and warmed up to 37° C. before adding to the cells.
(§10) 35 μl cell culture medium was removed from each well and replaced with 35 μl of pre-warmed Cal 520 dye solution and cell plate was incubated for 45 min at 37° C./5% CO2. Cells were incubated for 5 min at 37° C.
(§11) Spontaneous electrical activity is recorded, using Cal520™ (AAT Bioquest) calcium fluorescence-dye signaling. This dye integrates the total intracellular calcium activity over the whole well. A bottle of Cal520 dye (50 μg, MW: 1103/mol) is dissolved with 50 μl DMSO as a stock solution of 0.9 mM. 50 μL of the stock solution of the dye was added to 10 ml Tryodes solution to have dye concentration of 4.5 μM. Subsequently, 35 μl of this dye solution was added into each well, to have a final dye concentration of 1.58 μM. The current dye protocol on this CTCM human assay was established recently (Ivan Kopljar et al, Journal of Pharmacological and toxicological methods 2018. 91: 80-86; Lu et al., Tox Sci 2019. 170 (2): 345-356).
(§12) Fluorescent signals (Ca^2+ transient morphology) were measured using the Functional Drug Screen System (FDSS/μCell; Hamamatsu, Japan) and the recordings were subsequently analyzed off-line, using appropriate software e.g. Notocord.
(§13) The cell plate was loaded into the FDSS/μCell for a test run: Ca^2+ transients were measured for 4 minutes to check for synchronous beating of the cardiomyocytes in each well. All 96 wells were measured simultaneously (sampling interval: 0.06 s, short exposure time: 10 ms; excitation wavelength 480 nm; emission wavelength 540 nm; FDSS/μCell warmed to 37° C.).
(§14) During the compound addition step, 100 μl of the respective double-concentrated test solutions was pipetted into each well simultaneously.
(§15) Data were analyzed off-line using appropriate software e.g. Notocord-Hem (version 4.3).
The following parameters of the Ca^2′ transient morphology were measured: • beat rate (BR) • amplitude of the Ca^2+ transient (Amp), • CTD90: Ca^2+ transient duration at 90% (time to 90% of the initial base value). […]

[3] = molecular target: hERG potassium channel (Homo sapiens (Human), UniProt Q12809); assay: Effect on membrane potassium current IKr in hERG transfected CHO cells, Protocol 1 (QPatch); type: cell-based
In short: as §1

[4] = test system: MOLM14 cells; assay: Proliferation assay (spheroid growth, 8 days), MOLM14; type: cell-based, human; conditions: MOLM14, 8 days; hydrochloride; read-out: spheroid assay_OneTime MOLM14 IC50;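 further: spheroid size read as confluence by live-cell imaging, compounds added at a range of concentrations with 0.3% DMSO, DMSO-treated wells = 0%, highest reference dose = low control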
[5] = test system: Cor.4U Cardiomyocytes; assay: Ca2+-fluorescence assay in human pluripotent stem cell-derived cardiomyocytes (CTCM human), Cor.4U Cardiomyocytes; type: cell-based; design: key: Green: No concern; Yellow: Low concern; Red: High concern; Black: Very high concern due to arrhythmic events; conditions: 30 min
Protocol: as §2, §3
Compounds were tested at 0.1 μM, 0.2 μM, 0.5 μM, 1 μM, 2.5 μM and 5 μM (n=4 per dose) on Cor.4U 9-Cardiomyocytes or on iCell® Cardiomyocytes2 […]
as §4, §5, §6
hSC-CMs (Cor.4U® Cardiomyocytes) were obtained from CDI (Ncardia, Germany). Cells are pre-plated and seeded in fibronectin-coated 96-well plates at a density suited to form a monolayer and maintained in culture in a stage incubator (37° C., 5% CO2), according to the instructions of the cell provider.
as §7, §8, §9, §10, §11, §12, §13, §14, §15
The following parameters of the Ca^2′ transient morphology were measured: • beat rate (BR) • amplitude of the Ca^2+ transient (Amp), • CTD90: Ca^2+ transient duration at 90% (time to 90% of the initial base value).
The presence of various ‘arrhythmia-like’ activities were also noted during the experimental periods. […]

[6] = test system: OCI-AML3 cells; assay: Proliferation assay (spheroid growth, 8 days), OCI-AML3; type: cell-based, human; conditions: OCI-AML3, 8 days, hydrochloride
In short: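 Spheroid size on day 8, taken as live-cell imaging confluence, served as readout after 8-day compound exposure (0.3% DMSO, 37 °C, 5% CO2) in round-bottom low-attachment wells. Seeding was 200 cells for MOLM14 and OCI-AML3, 300 for KO-52. IC50 came from % effect versus DMSO and reference baseline, fitted with variable slope.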

[7] = test system: OCI-AML3 tumors; assay: Efficacy study in disseminated OCI-AML3 model (survival); type: in vivo, mouse; conditions: disseminated OCI-AML3, SCID beige mice, vehicle 38.5 days

Chain of hERG potassium channel (IKr) (Q12809 whole entry): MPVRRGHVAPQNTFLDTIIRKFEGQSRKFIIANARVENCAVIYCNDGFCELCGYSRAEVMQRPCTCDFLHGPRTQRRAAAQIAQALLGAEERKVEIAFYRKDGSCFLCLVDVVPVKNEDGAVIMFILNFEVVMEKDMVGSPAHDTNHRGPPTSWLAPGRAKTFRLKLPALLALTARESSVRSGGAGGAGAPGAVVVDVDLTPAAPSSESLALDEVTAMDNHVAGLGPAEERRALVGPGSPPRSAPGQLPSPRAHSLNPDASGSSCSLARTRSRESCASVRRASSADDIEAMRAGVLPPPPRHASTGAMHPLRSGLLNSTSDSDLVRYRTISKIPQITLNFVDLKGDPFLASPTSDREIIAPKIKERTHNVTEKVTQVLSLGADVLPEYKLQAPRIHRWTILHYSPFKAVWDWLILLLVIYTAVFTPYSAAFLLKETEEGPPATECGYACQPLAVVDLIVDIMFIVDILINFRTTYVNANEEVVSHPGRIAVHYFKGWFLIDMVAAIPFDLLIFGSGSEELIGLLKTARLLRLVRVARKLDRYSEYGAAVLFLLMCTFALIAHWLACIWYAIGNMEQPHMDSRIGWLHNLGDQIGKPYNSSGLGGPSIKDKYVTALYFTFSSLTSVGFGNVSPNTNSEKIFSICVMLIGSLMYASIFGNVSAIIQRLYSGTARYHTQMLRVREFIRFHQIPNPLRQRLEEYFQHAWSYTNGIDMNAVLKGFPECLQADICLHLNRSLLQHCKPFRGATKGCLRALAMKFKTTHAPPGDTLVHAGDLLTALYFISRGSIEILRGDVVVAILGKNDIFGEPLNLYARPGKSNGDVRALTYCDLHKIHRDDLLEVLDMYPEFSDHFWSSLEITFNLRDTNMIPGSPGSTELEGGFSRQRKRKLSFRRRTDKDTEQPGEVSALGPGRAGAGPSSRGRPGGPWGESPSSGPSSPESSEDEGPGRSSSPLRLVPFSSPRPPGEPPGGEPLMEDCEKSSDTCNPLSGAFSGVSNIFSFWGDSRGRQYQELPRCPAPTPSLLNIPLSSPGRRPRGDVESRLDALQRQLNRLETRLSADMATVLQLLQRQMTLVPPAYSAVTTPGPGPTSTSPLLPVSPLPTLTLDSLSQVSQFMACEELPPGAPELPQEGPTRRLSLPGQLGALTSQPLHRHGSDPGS
Chain of hERG potassium channel (Q12809 whole entry): as above

In the case of `CCN(C(=O)c1cc(F)ccc1Oc1nncnc1N1CCC2(C1)CN([C@H](CCCNCCOC)C(C)C)C2)C(C)C` [Compound 11, (R)-N-ethyl-5-fluoro-N-isopropyl-2-((5-(2-(6-((2-methoxyethyl)amino)-2-methylhexan-3-yl)-2,6-diazaspiro[3.4]octan-6-yl)-1,2,4-triazin-6-yl)oxy)benzamide], the IC50 at 5 min [1] is reported as over 30.2 µM, the “Color @ 0.1 μM (hazard score)” value ([2]; range 0.1-30 μM) is reported as “Green” and the “Color @ 0.3 μM (hazard score)” value ([2]; iCell Cardiomyocytes2, 0.3 μM) is reported as “Green”. For the same compound, the “Color @ 1 μM (hazard score)” value ([2]; range 0.1-30 μM) was “Green”, the “Color @ 3 μM (hazard score)” value ([2]; iCell Cardiomyocytes2, 3 μM) was “Green” and the “Color @ 10 μM (hazard score)” value ([2]; iCell Cardiomyocytes2, 10 μM) was “Green”. For the same compound, the “Color @ 30 μM (hazard score)” value ([2]; iCell Cardiomyocytes2, 30 μM) was “Green”.
In the case of `CCN(C(=O)c1cc(F)ccc1Oc1nncnc1N1CCC2(C1)CN([C@H](CCCNC)C(C)C)C2)C(C)C` [Compound 19, (R)-N-ethyl-5-fluoro-N-isopropyl-2-((5-(2-(2-methyl-6-(methylamino)hexan-3-yl)-2,6-diazaspiro[3.4]octan-6-yl)-1,2,4-triazin-6-yl)oxy)benzamide hydrochloride], the IC50 [3] is reported as over 30.2 µM, the IC50 [4] is reported as 0.058 µM and the “Color @ 0.1 μM (hazard score)” value ([5]; 0.1 μM) is reported as “Green”. The “Color @ 0.2 μM (hazard score)” value ([5]; 0.2 μM) was “Green”, the “Color @ 0.5 μM (hazard score)” value ([5]; 0.5 μM) was “Green” and the “Color @ 1 μM (hazard score)” value ([5]; 1 μM) was “Green”. The “Color @ 2.5 μM (hazard score)” value ([5]; 2.5 μM) was “Green”, the “Color @ 5 μM (hazard score)” value ([5]; 5 μM) was “Green” and the IC50 [6] was 0.16 µM.
`CCN(C(=O)c1cc(F)ccc1Oc1nncnc1N1CCC2(C1)CN([C@H](CCCN(C)CCOC)C(C)C)C2)C(C)C` [Compound 70, (R)-N-ethyl-5-fluoro-N-isopropyl-2-((5-(2-(6-((2-methoxyethyl)(methyl)amino)-2-methylhexan-3-yl)-2,6-diazaspiro[3.4]octan-6-yl)-1,2,4-triazin-6-yl)oxy)benzamide oxalate] was tested, and the “Color @ 0.1 μM (hazard score)” value [2] was “Green”, the “Color @ 0.2 μM (hazard score)” value ([2]; iCell Cardiomyocytes2, 0.2 μM) was “Green” and the “Color @ 0.5 μM (hazard score)” value ([2]; iCell Cardiomyocytes2, 0.5 μM) was “Green”. The “Color @ 1 μM (hazard score)” value [2] was “Green”, the “Color @ 2.5 μM (hazard score)” value ([2]; iCell Cardiomyocytes2, 2.5 μM) was “Green” and the “Color @ 5 μM (hazard score)” value ([2]; iCell Cardiomyocytes2, 5 μM) was “Green”. For the same compound, the “median days of survival” value ([7]; 30 mg/kg PO daily for 28 days) was 75.5 days and the “median days of survival” value ([7]; 50 mg/kg PO daily for 28 days) was 58.5 days.
